The source of these data is patent US20220160747A1, “PHARMACEUTICAL COMPOSITION COMPRISING NOVEL AZOLOPYRIMIDINE HETEROCYCLIC COMPOUND AS ACTIVE INGREDIENT” (KOREA RESEARCH INSTITUTE OF CHEMICAL TECHNOLOGY, priority 2019, published 2022).

Usually IC50 stands for the concentration at which inhibition is half-maximal.

For assay [1], the target named is T1, human CD73 recombinant protein (Homo sapiens, UniProt P21589).
T1 construct: made in house
T1 sequence (P21589 27-549): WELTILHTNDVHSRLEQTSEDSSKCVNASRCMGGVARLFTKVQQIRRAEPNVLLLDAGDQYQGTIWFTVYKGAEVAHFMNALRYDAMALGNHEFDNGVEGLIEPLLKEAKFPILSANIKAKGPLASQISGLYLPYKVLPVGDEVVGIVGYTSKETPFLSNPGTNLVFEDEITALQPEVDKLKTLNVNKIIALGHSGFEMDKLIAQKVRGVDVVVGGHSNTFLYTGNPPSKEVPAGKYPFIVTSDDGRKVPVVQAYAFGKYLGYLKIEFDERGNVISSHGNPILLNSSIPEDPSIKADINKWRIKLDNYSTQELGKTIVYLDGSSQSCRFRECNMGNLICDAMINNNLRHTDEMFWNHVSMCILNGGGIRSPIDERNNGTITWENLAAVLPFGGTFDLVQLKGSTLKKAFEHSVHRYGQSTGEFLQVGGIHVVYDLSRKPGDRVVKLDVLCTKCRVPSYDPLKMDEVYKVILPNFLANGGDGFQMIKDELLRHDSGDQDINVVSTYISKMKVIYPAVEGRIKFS
In words: Enzyme assay, CD73 (Malachite green kit). It is filed as biochemical. Particulars: AMP added, incubation 30 minutes. On the procedure:
(§1) Referring to a method described in a reference document [Front Pharmacol. 2018 Mar. 1; 9:153], an enzyme assay was performed. Each of human CD73 and CD39 recombinant proteins was produced and then purified and isolated, and used in an enzyme assay. A buffer was basically 25 mM Tris, 5 mM MgCl2, pH 7.5 as an assay buffer, and for assay, human CD73 and CD39 recombinant protein were diluted at an appropriate concentration, respectively, in the assay buffer, adenosine monophosphate (AMP) (Sigma, Catalog #A1752) at an appropriate concentration was added, and then incubation was performed for 30 minutes. At the time, the azolopyrimidine heterocyclic compounds of the present invention were treated for each concentration and incubated together, thereby measuring a degree of inhibiting activity of CD73 or CD39.

Assay [2] has as its target T2, human CD39 recombinant protein (Homo sapiens, UniProt P49961).
T2 construct: made in house
T2 sequence (P49961 1-510): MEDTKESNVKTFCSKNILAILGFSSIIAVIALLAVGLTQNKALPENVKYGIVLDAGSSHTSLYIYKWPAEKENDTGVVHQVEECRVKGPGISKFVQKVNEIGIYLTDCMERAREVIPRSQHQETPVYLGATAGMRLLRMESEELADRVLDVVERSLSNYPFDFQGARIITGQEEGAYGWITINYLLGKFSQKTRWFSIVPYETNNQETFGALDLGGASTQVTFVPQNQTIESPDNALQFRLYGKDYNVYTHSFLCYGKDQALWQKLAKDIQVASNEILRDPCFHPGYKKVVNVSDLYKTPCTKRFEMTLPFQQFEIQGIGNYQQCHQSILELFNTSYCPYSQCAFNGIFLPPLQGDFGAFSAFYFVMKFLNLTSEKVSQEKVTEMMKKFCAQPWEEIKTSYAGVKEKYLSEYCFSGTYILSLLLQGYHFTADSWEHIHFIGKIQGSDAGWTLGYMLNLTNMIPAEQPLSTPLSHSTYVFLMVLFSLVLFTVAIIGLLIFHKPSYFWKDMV
Put plainly: Enzyme assay, CD39 (Malachite green kit). Format: biochemical. The following applies: AMP added, incubation 30 minutes. On the procedure: as §1

For `CN(Cc1cccc(F)c1)c1ncnc2c1ncn2[C@@H]1O[C@H](COCc2cc(C(F)(F)F)cc(C(F)(F)F)c2)[C@@H](O)[C@H]1O` [Compound 14, (2R,3S,4R,5R)-2-(((3,5-bis(trifluoromethyl)benzyl)oxy)methyl)-5-(6-((3-fluorobenzyl)(methyl)amino)-9H-purin-9-yl)tetrahydrofuran-3,4-diol], the IC50 was below 1 µM in assay [1] and 5.1 to 15 µM in assay [2].
